Measured values: patent publication US8557763B2, “Synthetic peptides that enhance tight junction permeability” (Alba Therapeutics Corporation, priority 2007, dated 2013)
Where no end group is shown, it is not given here. [ ]: non-standard residue; d: D form. AllylGly = C=CC[C@H](N)C(=O)O

What was measured:
[1] = test system: CaCo2 monolayers; experiment: Trans Epithelial Electric Resistance (TEER) across CaCo2 monolayers; assay type: cell-based; parameters: key to Reduced TEER: + indicates an enhancement of the permeability of the tight junctions were observed; − indicates no enhancement of permeability was observed; conditions: CaCo2 monolayers
From the text: (§1) Agonists of tight junctions can be identified by their ability to enhance the flux of compounds (e.g. ions, Lucifer Yellow) through a cell monolayer that comprises tight junctions; or by their ability to reduce TEER across a cell monolayer that comprises tight junctions. Treatment of CaCo2 monolayers with peptide FCIGRL (SEQ ID NO: 1) led to a 51-fold enhancement of Lucifer Yellow permeability through CaCo2 monolayers compared to vehicle alone.
Treatment of CaCo2 monolayers with peptide FCIGRL led to a 16-fold decrease in TEER across CaCo2 monolayers compared to vehicle alone.
(§2) Tight junction agonists can be identified and tested using the following method:
(§3) Determination of TEER and Lucifer Yellow Flux
(§4) Prepare Modified Hank's Balanced Salt Solution (MHBSS) by obtaining 1 L bottle of HBSS removing 10 ml of HBSS and replacing it with 10 ml HEPES buffer pH 7.0. Adjust pH to 7.4±0.1 using concentrated NaOH (10N).
(§5) Remove CaCo-2 cells from incubator, grown on 12-well, 3.0 μM, polycarbonate Transwell® filters (Corning) and record passage#, date cells seeded and age in days.
(§6) Aspirate cell culture medium from both the apical (AP) and basolateral (BL) compartments, replacing with 0.5 ml and 1.5 ml of MHBSS, respectively. Incubate cells at 37° C. for 30 minutes.
Using the MilliCell®-ERS instrument (Millipore), measure and record the transepithelial electrical resistance (TEER) across each filter and record.
(§7) Aspirate solution from the apical compartment of each filter (n=3 per condition) and replace with 0.5 ml of control and test solutions containing Lucifer Yellow and test compound if appropriate.
(§8) Place all plates into incubator set at 37° C. (±0.2), 50 RPM (±5) for a total of 180 minutes.
At t=30, 60, 120 and 180 minutes, measure and record the transepithelial electrical resistance (TEER) across each filter using the MilliCell-ERS instrument.
(§9) Cells: CaCo-2 cells passage 40-60 grown on Transwell® plates for 21-28 days
(§10) Culture Medium: DMEM supplemented with 10% fetal bovine serum, 1% NEAA, 1% Penn/Strep
(§11) Buffers: Hank's Balanced Salt Solution (HBSS) without calcium and magnesium
(§12) Flasks: 100×20 mm Tissue culture dish Falcon.
(§13) Plates: 12 well polycarbonate Transwell® filters; 0.3 uM pore size

[2] = test system: CaCo2 monolayers; experiment: Lucifer Yellow (LY) permeability assay through CaCo2 monolayers; assay type: cell-based; parameters: key to Enhanced LY permeability: + indicates an enhancement of the permeability of the tight junctions were observed; − indicates no enhancement of permeability was observed; conditions: CaCo2 monolayers, Lucifer Yellow flux
From the text: as §1, §2, §3, §4, §5, §6, §7, §8
At t=60, 120 and 180 minutes remove […] from each basolateral compartment and place it in a 96-well plate for Lucifer Yellow analysis, replace with 100 μl of MHBSS.
Make a Lucifer Yellow standard curve with the following dilutions (7500 μM, 3750 μM, 750 μM, 375 μM, 37.5 μM, 7.5 μM, 3.75 μM, 0.75 μM) and pipette 100 μL of each into a 96-well plate except for the first three standards mentioned above which require a 1:10 dilutions prior to transferring to the 96-well plate.
Harvest the remaining start solutions and what is left in each apical compartment into 1.5 ml vials. Freeze at −20° C. for future analysis.
Analyze each 96-well plate in a Tecan Spectra Fluor Plus using Magellan at 485 and 535 nm.
as §9, §10, §11, §12, §13

## 34 (F[AllylGly]QGRL-NH2; N-terminus assumed; SMILES C=CC[C@H](NC(=O)[C@@H](N)Cc1ccccc1)C(=O)N[C@@H](CCC(N)=O)C(=O)NCC(=O)N[C@@H](CCCNC(=N)N)C(=O)N[C@@H](CC(C)C)C(N)=O) [compound 34]
[1]
  Reduced TEER: +
[2]
  Enhanced LY permeability: +

## 35 (F[AllylGly]RGRL-NH2; N-terminus assumed; SMILES C=CC[C@H](NC(=O)[C@@H](N)Cc1ccccc1)C(=O)N[C@@H](CCCNC(=N)N)C(=O)NCC(=O)N[C@@H](CCCNC(=N)N)C(=O)N[C@@H](CC(C)C)C(N)=O) [compound 35]
[1]
  Reduced TEER: +
[2]
  Enhanced LY permeability: +

## 36 (F[AllylGly]KGRL-NH2; N-terminus assumed; SMILES C=CC[C@H](NC(=O)[C@@H](N)Cc1ccccc1)C(=O)N[C@@H](CCCCN)C(=O)NCC(=O)N[C@@H](CCCNC(=N)N)C(=O)N[C@@H](CC(C)C)C(N)=O) [compound 36]
[1]
  Reduced TEER: +
[2]
  Enhanced LY permeability: +

## 37 (F[AllylGly]NGRL-NH2; N-terminus assumed; SMILES C=CC[C@H](NC(=O)[C@@H](N)Cc1ccccc1)C(=O)N[C@@H](CC(N)=O)C(=O)NCC(=O)N[C@@H](CCCNC(=N)N)C(=O)N[C@@H](CC(C)C)C(N)=O) [compound 37]
[1]
  Reduced TEER: +
[2]
  Enhanced LY permeability: +

## 38 (F[AllylGly]YGRL-NH2; N-terminus assumed; SMILES C=CC[C@H](NC(=O)[C@@H](N)Cc1ccccc1)C(=O)N[C@@H](Cc1ccc(O)cc1)C(=O)NCC(=O)N[C@@H](CCCNC(=N)N)C(=O)N[C@@H](CC(C)C)C(N)=O) [compound 38]
[1]
  Reduced TEER: +
[2]
  Enhanced LY permeability: +

## 39 (F[AllylGly]ITRL-NH2; N-terminus assumed; SMILES C=CC[C@H](NC(=O)[C@@H](N)Cc1ccccc1)C(=O)N[C@H](C(=O)N[C@H](C(=O)N[C@@H](CCCNC(=N)N)C(=O)N[C@@H](CC(C)C)C(N)=O)[C@@H](C)O)[C@@H](C)CC) [compound 39]
[1]
  Reduced TEER: +
[2]
  Enhanced LY permeability: +

## 42 (F[AllylGly]IARL-NH2; N-terminus assumed; SMILES C=CC[C@H](NC(=O)[C@@H](N)Cc1ccccc1)C(=O)N[C@H](C(=O)N[C@@H](C)C(=O)N[C@@H](CCCNC(=N)N)C(=O)N[C@@H](CC(C)C)C(N)=O)[C@@H](C)CC) [compound 42]
[1]
  Reduced TEER: +
[2]
  Enhanced LY permeability: +

## 43 (F[AllylGly]IPRL-NH2; N-terminus assumed; SMILES C=CC[C@H](NC(=O)[C@@H](N)Cc1ccccc1)C(=O)N[C@H](C(=O)N1CCC[C@H]1C(=O)N[C@@H](CCCNC(=N)N)C(=O)N[C@@H](CC(C)C)C(N)=O)[C@@H](C)CC) [compound 43]
[1]
  Reduced TEER: −
[2]
  Enhanced LY permeability: −

## 45 (F[AllylGly]IHRL-NH2; N-terminus assumed; SMILES C=CC[C@H](NC(=O)[C@@H](N)Cc1ccccc1)C(=O)N[C@H](C(=O)N[C@@H](Cc1c[nH]cn1)C(=O)N[C@@H](CCCNC(=N)N)C(=O)N[C@@H](CC(C)C)C(N)=O)[C@@H](C)CC) [compound 45]
[1]
  Reduced TEER: +
[2]
  Enhanced LY permeability: +

## 46 (F[AllylGly]IDRL-NH2; N-terminus assumed; SMILES C=CC[C@H](NC(=O)[C@@H](N)Cc1ccccc1)C(=O)N[C@H](C(=O)N[C@@H](CC(=O)O)C(=O)N[C@@H](CCCNC(=N)N)C(=O)N[C@@H](CC(C)C)C(N)=O)[C@@H](C)CC) [compound 46]
[1]
  Reduced TEER: +
[2]
  Enhanced LY permeability: +

## 47 (F[AllylGly]IERL-NH2; N-terminus assumed; SMILES C=CC[C@H](NC(=O)[C@@H](N)Cc1ccccc1)C(=O)N[C@H](C(=O)N[C@@H](CCC(=O)O)C(=O)N[C@@H](CCCNC(=N)N)C(=O)N[C@@H](CC(C)C)C(N)=O)[C@@H](C)CC) [compound 47]
[1]
  Reduced TEER: +
[2]
  Enhanced LY permeability: +

## 48 (F[AllylGly]IQRL-NH2; N-terminus assumed; SMILES C=CC[C@H](NC(=O)[C@@H](N)Cc1ccccc1)C(=O)N[C@H](C(=O)N[C@@H](CCC(N)=O)C(=O)N[C@@H](CCCNC(=N)N)C(=O)N[C@@H](CC(C)C)C(N)=O)[C@@H](C)CC) [compound 48]
[1]
  Reduced TEER: +
[2]
  Enhanced LY permeability: +

## 49 (F[AllylGly]IFRL-NH2; N-terminus assumed; SMILES C=CC[C@H](NC(=O)[C@@H](N)Cc1ccccc1)C(=O)N[C@H](C(=O)N[C@@H](Cc1ccccc1)C(=O)N[C@@H](CCCNC(=N)N)C(=O)N[C@@H](CC(C)C)C(N)=O)[C@@H](C)CC) [compound 49]
[1]
  Reduced TEER: +
[2]
  Enhanced LY permeability: +

## 51 (F[AllylGly]IKRL-NH2; N-terminus assumed; SMILES C=CC[C@H](NC(=O)[C@@H](N)Cc1ccccc1)C(=O)N[C@H](C(=O)N[C@@H](CCCCN)C(=O)N[C@@H](CCCNC(=N)N)C(=O)N[C@@H](CC(C)C)C(N)=O)[C@@H](C)CC) [compound 51]
[1]
  Reduced TEER: −
[2]
  Enhanced LY permeability: −

## 52 (F[AllylGly]INRL-NH2; N-terminus assumed; SMILES C=CC[C@H](NC(=O)[C@@H](N)Cc1ccccc1)C(=O)N[C@H](C(=O)N[C@@H](CC(N)=O)C(=O)N[C@@H](CCCNC(=N)N)C(=O)N[C@@H](CC(C)C)C(N)=O)[C@@H](C)CC) [compound 52]
[1]
  Reduced TEER: +
[2]
  Enhanced LY permeability: +

## 53 (F[AllylGly]ISRL-NH2; N-terminus assumed; SMILES C=CC[C@H](NC(=O)[C@@H](N)Cc1ccccc1)C(=O)N[C@H](C(=O)N[C@@H](CO)C(=O)N[C@@H](CCCNC(=N)N)C(=O)N[C@@H](CC(C)C)C(N)=O)[C@@H](C)CC) [compound 53]
[1]
  Reduced TEER: +
[2]
  Enhanced LY permeability: +

## 54 (F[AllylGly]IVRL-NH2; N-terminus assumed; SMILES C=CC[C@H](NC(=O)[C@@H](N)Cc1ccccc1)C(=O)N[C@H](C(=O)N[C@H](C(=O)N[C@@H](CCCNC(=N)N)C(=O)N[C@@H](CC(C)C)C(N)=O)C(C)C)[C@@H](C)CC) [compound 54]
[1]
  Reduced TEER: +
[2]
  Enhanced LY permeability: −

## 55 (F[AllylGly]IGHL-NH2; N-terminus assumed; SMILES C=CC[C@H](NC(=O)[C@@H](N)Cc1ccccc1)C(=O)N[C@H](C(=O)NCC(=O)N[C@@H](Cc1c[nH]cn1)C(=O)N[C@@H](CC(C)C)C(N)=O)[C@@H](C)CC) [compound 55]
[1]
  Reduced TEER: −
[2]
  Enhanced LY permeability: −

## 56 (F[AllylGly]IGDL-NH2; N-terminus assumed; SMILES C=CC[C@H](NC(=O)[C@@H](N)Cc1ccccc1)C(=O)N[C@H](C(=O)NCC(=O)N[C@@H](CC(=O)O)C(=O)N[C@@H](CC(C)C)C(N)=O)[C@@H](C)CC) [compound 56]
[1]
  Reduced TEER: +
[2]
  Enhanced LY permeability: +

## 57 (F[AllylGly]IGEL-NH2; N-terminus assumed; SMILES C=CC[C@H](NC(=O)[C@@H](N)Cc1ccccc1)C(=O)N[C@H](C(=O)NCC(=O)N[C@@H](CCC(=O)O)C(=O)N[C@@H](CC(C)C)C(N)=O)[C@@H](C)CC) [compound 57]
[1]
  Reduced TEER: −
[2]
  Enhanced LY permeability: −

## 58 (F[AllylGly]IGQL-NH2; N-terminus assumed; SMILES C=CC[C@H](NC(=O)[C@@H](N)Cc1ccccc1)C(=O)N[C@H](C(=O)NCC(=O)N[C@@H](CCC(N)=O)C(=O)N[C@@H](CC(C)C)C(N)=O)[C@@H](C)CC) [compound 58]
[1]
  Reduced TEER: −
[2]
  Enhanced LY permeability: −
